The values below come from US20240043404A1 (AbbVie Inc., priority 2009, published 2024).

Each structure is given as a SMILES string.

The assay relates to RS4;11 cells. The assay can be described thus: RS4;11 cell viability assay (CellTiter Glo).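 Further: acute lymphoblastic leukemia line RS4,11, EC50 derived from percentage of viable cells after treatment relative to untreated controls, cell killing taken as a measure of Bcl-2 inhibition.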 The settings on record: Homo sapiens, RS4-11, 48 h, 50,000 cells per well, 10% human serum, 48 hours; read-out: RS4; 11 EC50 Values. The format is cell-based, human. Background: Cellular ATP, detected with luciferase, serves as a proxy for viable cell number.
Protocol: The acute lymphoblastic leukemia (ALL) cell line RS4;11 was used as the primary human cell line to assess the cellular activity of Bcl-2 selective agents in vitro and their efficacy in vivo.
Cell cytotoxicity EC50 values were assessed using CellTiter Glo (Promega) according to the manufacturer's recommendations. The EC50 values were determined as a percentage of viable cells following treatment compared to the untreated control cells.
As to `CC1(C)CCC(CN2CCN(c3ccc(C(=O)NS(=O)(=O)c4ccc(NN5CCN(C(=O)OC(C)(C)C)CC5)c([N+](=O)[O-])c4)c(Oc4cnc5[nH]ccc5c4)c3)CC2)=C(c2ccc(Cl)cc2)C1` [Example 232, tert-butyl 4-[(4-{[4-(4-{[2-(4-chlorophenyl)-4,4-dimethylcyclohex-1-en-1-yl]methyl}piperazin-1-yl)-2-(1H-pyrrolo[2,3-b]pyridin-5-yloxy)benzoyl]sulfamoyl}-2-nitrophenyl)amino]piperazine-1-carboxylate], the EC50 is over 1000 nM.
Next, `CC1(C)CCC(CN2CCN(c3ccc(C(=O)NS(=O)(=O)c4ccc(NCCCN(C5CCC5)C5CC5)c([N+](=O)[O-])c4)c(Oc4cnc5[nH]ccc5c4)c3)CC2)=C(c2ccc(Cl)cc2)C1` [Example 320, 4-(4-{[2-(4-chlorophenyl)-4,4-dimethylcyclohex-1-en-1-yl]methyl}piperazin-1-yl)-N-{[4-({3-[cyclobutyl(cyclopropyl)amino]propyl}amino)-3-nitrophenyl]sulfonyl}-2-(1H-pyrrolo[2,3-b]pyridin-5-yloxy)benzamide]: 51 nM; `CC1(C)CCC(CC2CCN(c3ccc(C(=O)NS(=O)(=O)c4ccc(OCC5CCOCC5)c(Cl)c4)c(Oc4cnc5[nH]ccc5c4)c3)CC2)=C(c2ccc(Cl)cc2)C1` [Example 316, 4-(4-{[2-(4-chlorophenyl)-4,4-dimethylcyclohex-1-en-1-yl]methyl}piperidin-1-yl)-N-{[3-chloro-4-(tetrahydro-2H-pyran-4-ylmethoxy)phenyl]sulfonyl}-2-(1H-pyrrolo[2,3-b]pyridin-5-yloxy)benzamide]: over 1000 nM.
As for `CC1(C)CCCC(c2ccc(Cl)cc2)=C1CN1CCN(c2ccc(C(=O)NS(=O)(=O)c3ccc(NCC4CCOCC4)c([N+](=O)[O-])c3)c(Oc3cnc4[nH]ccc4c3)c2)CC1` [Example 101, 4-(4-{[2-(4-chlorophenyl)-6,6-dimethylcyclohex-1-en-1-yl]methyl}piperazin-1-yl)-N-({3-nitro-4-[(tetrahydro-2H-pyran-4-ylmethyl)amino]phenyl}sulfonyl)-2-(1H-pyrrolo[2,3-b]pyridin-5-yloxy)benzamide], the EC50 was determined as 299 nM.
Take `CC1(C)CCC(CN2CCN(c3ccc(C(=O)NS(=O)(=O)c4ccc(OCC5COCCN5C(=O)OC(C)(C)C)c([N+](=O)[O-])c4)c(Oc4cnc5[nH]ccc5c4)c3)CC2)=C(c2ccc(Cl)cc2)C1` (stereo not drawn) [Example 77, tert-butyl 3-{[4-({[4-(4-{[2-(4-chlorophenyl)-4,4-dimethylcyclohex-1-en-1-yl]methyl}piperazin-1-yl)-2-(1H-pyrrolo[2,3-b]pyridin-5-yloxy)benzoyl]amino}sulfonyl)-2-nitrophenoxy]methyl}morpholine-4-carboxylate]: the EC50 worked out at 762 nM.
On to `COCCOc1ncc(S(=O)(=O)NC(=O)c2ccc(N3CCN(CC4=C(c5ccc(Cl)cc5)CC(C)(C)CC4)CC3)cc2Oc2cnc3[nH]ccc3c2)cc1Cl` [Example 292, N-{[5-chloro-6-(2-methoxyethoxy)pyridin-3-yl]sulfonyl}-4-(4-{[2-(4-chlorophenyl)-4,4-dimethylcyclohex-1-en-1-yl]methyl}piperazin-1-yl)-2-(1H-pyrrolo[2,3-b]pyridin-5-yloxy)benzamide], for which the EC50 is 889 nM.
`COCC(=O)N1CCC(COc2ccc(S(=O)(=O)NC(=O)c3ccc(N4CCN(CC5=C(c6ccc(Cl)cc6)CC(C)(C)CC5)CC4)cc3Oc3cnc4[nH]ccc4c3)cc2Cl)CC1` [Example 294, N-[(3-chloro-4-{[1-(methoxyacetyl)piperidin-4-yl]methoxy}phenyl)sulfonyl]-4-(4-{[2-(4-chlorophenyl)-4,4-dimethylcyclohex-1-en-1-yl]methyl}piperazin-1-yl)-2-(1H-pyrrolo[2,3-b]pyridin-5-yloxy)benzamide]: the EC50 came to 125 nM.
`CC1(C)CCC(CN2CCN(c3ccc(C(=O)NS(=O)(=O)c4ccc(NCC5CCOCC5)c(Cl)c4)c(Oc4cnc5[nH]ccc5c4)c3)CC2)=C(c2ccc(Cl)cc2)C1` [Example 306, 4-(4-{[2-(4-chlorophenyl)-4,4-dimethylcyclohex-1-en-1-yl]methyl}piperazin-1-yl)-N-({3-chloro-4-[(tetrahydro-2H-pyran-4-ylmethyl)amino]phenyl}sulfonyl)-2-(1H-pyrrolo[2,3-b]pyridin-5-yloxy)benzamide]: the EC50 turned out to be 553 nM.
The result for `CC1(C)CCC(CN2CCN(c3ccc(C(=O)NS(=O)(=O)c4ccc(OCC5CCOC5)c(Cl)c4)c(Oc4cnc5[nH]ccc5c4)c3)CC2)=C(c2ccc(Cl)cc2)C1` (stereo not drawn) [Example 323, 4-(4-{[2-(4-chlorophenyl)-4,4-dimethylcyclohex-1-en-1-yl]methyl}piperazin-1-yl)-N-{[3-chloro-4-(tetrahydrofuran-3-ylmethoxy)phenyl]sulfonyl}-2-(1H-pyrrolo[2,3-b]pyridin-5-yloxy)benzamide] reads 717 nM; that for `CC1(C)CCC(CN2CCN(c3ccc(C(=O)NS(=O)(=O)c4ccc(NCC5CNCCO5)c([N+](=O)[O-])c4)c(Oc4cnc5[nH]ccc5c4)c3)CC2)=C(c2ccc(Cl)cc2)C1` (stereo not drawn) [Example 113, 4-(4-{[2-(4-chlorophenyl)-4,4-dimethylcyclohex-1-en-1-yl]methyl}piperazin-1-yl)-N-({4-[(morpholin-2-ylmethyl)amino]-3-nitrophenyl}sulfonyl)-2-(1H-pyrrolo[2,3-b]pyridin-5-yloxy)benzamide], 1.36 nM.
Regarding `CC1(C)CCC(CN2CCN(c3ccc(C(=O)NS(=O)(=O)c4ccc(NC5CCC(N6CCC(F)(F)C6)CC5)c([N+](=O)[O-])c4)c(Oc4cnc5[nH]ccc5c4)c3)CC2)=C(c2ccc(Cl)cc2)C1` (stereo not drawn) [Example 346, 4-(4-{[2-(4-chlorophenyl)-4,4-dimethylcyclohex-1-en-1-yl]methyl}piperazin-1-yl)-N-[(4-{[4-(3,3-difluoropyrrolidin-1-yl)cyclohexyl]amino}-3-nitrophenyl)sulfonyl]-2-(1H-pyrrolo[2,3-b]pyridin-5-yloxy)benzamide], the EC50 was 190 nM.
As for `CCN(C)C(=O)N1CCO[C@H](COc2ncc(S(=O)(=O)NC(=O)c3ccc(N4CCN(CC5=C(c6ccc(Cl)cc6)CC(C)(C)CC5)CC4)cc3Oc3cnc4[nH]ccc4c3)cc2Cl)C1` [Example 334, (2S)-2-{[(3-chloro-5-{[4-(4-{[2-(4-chlorophenyl)-4,4-dimethylcyclohex-1-en-1-yl]methyl}piperazin-1-yl)-2-(1H-pyrrolo[2,3-b]pyridin-5-yloxy)benzoyl]sulfamoyl}pyridin-2-yl)oxy]methyl}-N-ethyl-N-methylmorpholine-4-carboxamide], the EC50 is over 1000 nM.
On to `CC1(C)CCC(CN2CCN(c3ccc(C(=O)NS(=O)(=O)c4ccc(N[C@H]5CCN(C6CC6)C5)c([N+](=O)[O-])c4)c(Oc4cnc5[nH]ccc5c4)c3)CC2)=C(c2ccc(Cl)cc2)C1` [Example 142, 4-(4-{[2-(4-chlorophenyl)-4,4-dimethylcyclohex-1-en-1-yl]methyl}piperazin-1-yl)-N-[(4-{[(3S)-1-cyclopropylpyrrolidin-3-yl]amino}-3-nitrophenyl)sulfonyl]-2-(1H-pyrrolo[2,3-b]pyridin-5-yloxy)benzamide], for which the EC50 is 345 nM.
Turning to `CC1(C)CCC(CN2CCN(c3ccc(C(=O)NS(=O)(=O)c4ccc(NC[C@@H]5CC[C@@H](O)C5)c([N+](=O)[O-])c4)c(Oc4cnc5[nH]ccc5c4)c3)CC2)=C(c2ccc(Cl)cc2)C1` [Example 156, 4-(4-{[2-(4-chlorophenyl)-4,4-dimethylcyclohex-1-en-1-yl]methyl}piperazin-1-yl)-N-{[4-({[(1R,3R)-3-hydroxycyclopentyl]methyl}amino)-3-nitrophenyl]sulfonyl}-2-(1H-pyrrolo[2,3-b]pyridin-5-yloxy)benzamide], the EC50 was 8.05 nM.
Take `CC(C)c1cc(S(=O)(=O)NC(=O)c2ccc(N3CCN(CC4=C(c5ccc(Cl)cc5)CC(C)(C)CC4)CC3)cc2Oc2cnc3[nH]ccc3c2)cnc1OCC1CCOCC1` [Example 85, 4-(4-{[2-(4-chlorophenyl)-4,4-dimethylcyclohex-1-en-1-yl]methyl}piperazin-1-yl)-N-{[5-isopropyl-6-(tetrahydro-2H-pyran-4-ylmethoxy)pyridin-3-yl]sulfonyl}-2-(1H-pyrrolo[2,3-b]pyridin-5-yloxy)benzamide]: the EC50 was 1950 nM.
For `CC1(C)CCC(CN2CCN(c3ccc(C(=O)NS(=O)(=O)c4ccc(N[C@H]5CCN(CC(F)F)C5)c([N+](=O)[O-])c4)c(Oc4cnc5[nH]ccc5c4)c3)CC2)=C(c2ccc(Cl)cc2)C1` [Example 182, 4-(4-{[2-(4-chlorophenyl)-4,4-dimethylcyclohex-1-en-1-yl]methyl}piperazin-1-yl)-N-[(4-{[(3S)-1-(2,2-difluoroethyl)pyrrolidin-3-yl]amino}-3-nitrophenyl)sulfonyl]-2-(1H-pyrrolo[2,3-b]pyridin-5-yloxy)benzamide], the EC50 turned out to be 123 nM.
With `CC1(C)CCC(CN2CCN(c3ccc(C(=O)NS(=O)(=O)c4ccc(NCC5COCCN5C5CCC5)c([N+](=O)[O-])c4)c(Oc4cnc5[nH]ccc5c4)c3)CC2)=C(c2ccc(Cl)cc2)C1` (stereo not drawn) [Example 170, 4-(4-{[2-(4-chlorophenyl)-4,4-dimethylcyclohex-1-en-1-yl]methyl}piperazin-1-yl)-N-[(4-{[(4-cyclobutylmorpholin-3-yl)methyl]amino}-3-nitrophenyl)sulfonyl]-2-(1H-pyrrolo[2,3-b]pyridin-5-yloxy)benzamide], the EC50 worked out at 125 nM.
Regarding `CC1(C)CCC(CN2CCN(c3ccc(C(=O)NS(=O)(=O)c4ccc(NN5CCN(C6COC6)CC5)c([N+](=O)[O-])c4)c(Oc4cnc5[nH]ccc5c4)c3)CC2)=C(c2ccc(Cl)cc2)C1` [Example 236, 4-(4-{[2-(4-chlorophenyl)-4,4-dimethylcyclohex-1-en-1-yl]methyl}piperazin-1-yl)-N-[(3-nitro-4-{[4-(oxetan-3-yl)piperazin-1-yl]amino}phenyl)sulfonyl]-2-(1H-pyrrolo[2,3-b]pyridin-5-yloxy)benzamide], the EC50 was 42.9 nM.
